Two compounds from patent US20210154173A1, “PHARMACEUTICAL COMPOSITION INCLUDING CLAVULANIC ACID AND VALPROIC ACID, METHOD FOR TREATMENT OF EPILEPSY SEIZURE, AND METHOD FOR TREATMENT OF EPILEPSY-ASSOCIATED MOTOR SYMPTOM AND COGNITIVE IMPAIRMENT” (Arthur Wisdom Technology Consultants Ltd., priority 2019, published 2021) can be followed below.

What all share (type): in vivo, Wistar male rats
In assay [1] the test system is epilepsy rats (PTZ induced). The assay is described as follows: Object recognition test (trial D). The conditions noted are these: 17th day. On the procedure: (§1) Wistar male rats (8 week-old) purchased from BioLASCO Taiwan Co., Ltd were used. The rats were housed in an animal room with constant temperature of 21-24° C., where was kept on a 12-hours light and 12-hours dark cycle. The rats were housed and kept on free diet and water.
(§2) 3 days before the trials, motor functions of the rats were tested by the rotarod test. On the 1st, 3rd, 5th, 7th, 9th, 11th and 13th days, pentylenetetrazol (PTZ, 35 mg/kg) was IP injected to the rats to induce epilepsy rats of groups A1-A5. On the 21st day, after administration of PTZ, seizure intensity of the rats was measured.
(§3) Referring to TABLE 1, on the 7th, 8th, 9th, 10th, 11th, 12th and 13th days, clavulanic acid and/or valproic acid was IP injected to the epilepsy rats of groups A2-A5. Saline (1 mL/kg/day) was IP injected to the normal rats of group A0, as well as the epilepsy rats of group A1.
On the 14th day, the motor function of the rats of groups A0-A5 was tested by rotarod test. On the 15th, 16th and 17th days, the cognitive impairment on object recognition ability of the rats of groups A0-A5 was tested by object recognition test. On the 18th, 19th and 20th days, the cognitive impairment on memory of the rats of groups A0-A5 was tested by passive avoidance test. […] The number of BrdU-positive cells in hippocampal dentate gyrus was calculated. […]
On the 17th day, during the test session, the rat R under the test was placed in the open box, shown as FIG. 6a, and the time spent exploring the object O1 (TO1) and the total time spent exploring the objects O1, O2 & O3 (TO1+O2+O3) were recorded, respectively. The percentage of the exploration time spent on the object O1 was calculated as (TO1/TO1+O2+O3)*100%. […] The time spent exploring the novel object O4 (TO4) and the total time spent exploring the objects O2 & O3 and the novel object O4 (TO2+O3+O4) were respectively recorded, and the percentage of the exploration time spent on the novel object O4 was calculated as […].

The test system of assay [2] is epilepsy rats (PTZ induced). The assay is described as follows: Rotarod test of motor function (trial C). The conditions noted are these: 14th day, 25 rpm for 3 minutes. How it is done: Wistar male rats (8 week-old) purchased from BioLASCO Taiwan Co., Ltd were used. The rats were housed in an animal room with constant temperature of 21-24° C., where was kept on a 12-hours light and 12-hours dark cycle. The rats were housed and kept on free diet and water. 3 days before the trials, motor functions of the rats were tested by the rotarod test. On the 1st, 3rd, 5th, 7th, 9th, 11th and 13th days, pentylenetetrazol (PTZ, 35 mg/kg) was IP injected to the rats to induce epilepsy rats of groups A1-A5. On the 21st day, after administration of PTZ, seizure intensity of the rats was measured. Referring to TABLE 1, on the 7th, 8th, 9th, 10th, 11th, 12th and 13th days, clavulanic acid and/or valproic acid was IP injected to the epilepsy rats of groups A2-A5. Saline (1 mL/kg/day) was IP injected to the normal rats of group A0, as well as the epilepsy rats of group A1. On the 14th day, the motor function of the rats of groups A0-A5 was tested by rotarod test. On the 15th, 16th and 17th days, the cognitive impairment on object recognition ability of the rats of groups A0-A5 was tested by object recognition test. On the 18th, 19th and 20th days, the cognitive impairment on memory of the rats of groups A0-A5 was tested by passive avoidance test. Moreover, on the 22nd day, BrdU (5′-bromo-2′-deoxyuridine) was IP injected to the rats of groups A0-A5 to label the proliferating cells. On the 23rd day, the rats of groups A0-A5 were sacrificed and the coronal brain sections were collected. The sections with hippocampal dentate gyrus were used for BrdU staining. The number of BrdU-positive cells in hippocampal dentate gyrus was calculated. Next, motor function of the rats of groups A0-A5 was tested by rotarod test. Specifically, in the training session, the normal rat that had not yet been induced as epilepsy rat by PTZ was used as the rat R under the test. […] 3 trials were performed with a cutoff of 5 minutes. On the 14th day, the rats of groups A0-A5 were used as the rats R under the test. […]

For assay [3], the system named is epilepsy rats (PTZ induced). The assay can be described thus: Passive avoidance test in shuttle box (trial E). The conditions noted are these: after retention session of 24 hours, p<0.05 compared to group A0. How it is done:
as §1, §2, §3
On the 14th day, the motor function of the rats of groups A0-A5 was tested by rotarod test. […] The number of BrdU-positive cells in hippocampal dentate gyrus was calculated. […]
After the retention session for 24 hours, the rat R under the test was placed in the light chamber C1, and the guillotine door D was opened, as shown in FIG. 8b. The latency to entrance into the dark chamber C2 was recorded. […]

Assay [4] deals with epilepsy rats (PTZ induced). The assay can be described thus: BrdU staining of hippocampal dentate gyrus (trial F). The conditions noted are these: 23rd day. How it is done:
as §1, §2, §3
On the 14th day, the motor function of the rats of groups A0-A5 was tested by rotarod test. On the 15th, 16th and 17th days, the cognitive impairment on object recognition ability of the rats of groups A0-A5 was tested by object recognition test. On the 18th, 19th and 20th days, the cognitive impairment on memory of the rats of groups A0-A5 was tested by passive avoidance test. Moreover, on the 22nd day, BrdU (5′-bromo-2′-deoxyuridine) was IP injected to the rats of groups A0-A5 to label the proliferating cells. On the 23rd day, the rats of groups A0-A5 were sacrificed and the coronal brain sections were collected. The sections with hippocampal dentate gyrus were used for BrdU staining. The number of BrdU-positive cells in hippocampal dentate gyrus was calculated.
On the 22nd day, BrdU was IP injected to the rats to label the proliferating cells. On the 23rd day, the rats of groups A0-A5 were sacrificed and the coronal sections of the brain were collected. The sections with hippocampal dentate gyrus were used for BrdU staining.

Assay [5] has as its system epilepsy rats (PTZ induced). The assay is described as follows: Seizure intensity by Racine score in PTZ-induced epilepsy rats (trial B). The following applies: for seizure intensity (Racine score): 9th, 11th and 13th days. On the procedure: Wistar male rats (8 week-old) purchased from BioLASCO Taiwan Co., Ltd were used. The rats were housed in an animal room with constant temperature of 21-24° C., where was kept on a 12-hours light and 12-hours dark cycle. The rats were housed and kept on free diet and water. 3 days before the trials, motor functions of the rats were tested by the rotarod test. On the 1st, 3rd, 5th, 7th, 9th, 11th and 13th days, pentylenetetrazol (PTZ, 35 mg/kg) was IP injected to the rats to induce epilepsy rats of groups A1-A5. On the 21st day, after administration of PTZ, seizure intensity of the rats was measured. Referring to TABLE 1, on the 7th, 8th, 9th, 10th, 11th, 12th and 13th days, clavulanic acid and/or valproic acid was IP injected to the epilepsy rats of groups A2-A5. Saline (1 mL/kg/day) was IP injected to the normal rats of group A0, as well as the epilepsy rats of group A1. On the 1st, 3rd, 5th, 7th, 9th, 11th, 13th and 21st days, the seizure intensity of the rats of groups A0-A5 was measured by Racine score. The seizure intensity was scored according to Racine's scale as follows: 0=normal, nonepileptic activity, 1=mouth and facial movements, hyperactivity, grooming, sniffing, scratching, wet dog shakes, 2=head nodding, staring, tremor, 3=forelimb clonus, forelimb extension, 4=rearing, salivating, tonic clonic activity and 5=falling, status epilepticus.

The mark [6] stands for this setting: group A4: valproic acid 50 mg/kg/day IP.

Regarding `O=C(O)[C@H]1/C(=C/CO)O[C@@H]2CC(=O)N21` [clavulanic acid], the “percentage of time exploring novel object O4 versus object O1” value in assay [1] (group A2: clavulanic acid 1 mg/kg/day IP, p<0.01) is “can recognize the novel object O4”; in assay [1] (group A3: clavulanic acid 10 mg/kg/day IP, p<0.05) it was “can recognize the novel object O4”. Further, the “riding time on rotarod” value in assay [2] (group A2: clavulanic acid 1 mg/kg/day IP, no difference between group A0) was “significantly increase the riding time”; in assay [2] (group A3: clavulanic acid 10 mg/kg/day IP, p<0.05 compared to group A1) it was “significantly increase the riding time”. The “latency to entrance into the dark chamber C2” value in assay [3] (group A2: clavulanic acid 1 mg/kg/day IP) is on record as “also decreases”. Also, the “number of BrdU-positive cells in hippocampal dentate gyrus” value is reported as “can recover the number of BrdU-positive cells to normal” in assay [4] (group A2: clavulanic acid 1 mg/kg/day IP, no difference compared to group A0) and “can recover the number of BrdU-positive cells to normal” in assay [4] (group A3: clavulanic acid 10 mg/kg/day IP, no difference compared to group A0). For the same compound, the results for the “seizure intensity (Racine score)” value in assay [5] (group A2: clavulanic acid 1 mg/kg/day IP days 7-13) and in assay [5] (group A3: clavulanic acid 10 mg/kg/day IP days 7-13) were 3-4 and “decreases”, respectively. The “seizure intensity (Racine score) after drug holiday” value in assay [5] (group A3: clavulanic acid 10 mg/kg/day IP days 7-13, not treated days 14-20, 21st day, compared to group A1 (saline)) was “still significantly lower”.
With `CCCC(CCC)C(=O)O` [valproic acid], in assay [1] (setting [6]), the “percentage of time exploring novel object O4 versus object O1” value is given as “cannot improve the cognitive decline on recognition ability”. Besides, the “riding time on rotarod” value in assay [2] (group A4: valproic acid 50 mg/kg/day IP, p<0.001 compared to group A0) is “cannot improve the motor coordination and balance problems”. Further, the “latency to entrance into the dark chamber C2” value in assay [3] (setting [6]) was “cannot improve the cognitive impairment on memory”. Moreover, in assay [4] (group A4: valproic acid 50 mg/kg/day IP, p<0.05 compared to A0), the “number of BrdU-positive cells in hippocampal dentate gyrus” value is “cannot improve the defect on neurogenesis”. The “seizure intensity (Racine score)” value in assay [5] (group A4: valproic acid 50 mg/kg/day IP days 7-13) is “did not decrease”.
